According to patent US4567200A, “Esters of mercapto acyl-carnitines and pharmaceutical compositions containing same” (Sigma-Tau Industrie Farmaceutiche Riunite S.p.A., priority 1981, dated 1986):
Counter-ions that a name gives are not always drawn.

How the values were obtained:
[1] = Acute toxicity in the mouse, Weil method; details: in vivo, ip
Source text: The acute toxicity of the compounds of general formula (I) has been studied in the mouse with the Weil method (Weil C.S., Biometr. J. 8, 249, 1952).
The LD50 values of some compounds illustrated in Table I, indicate that the compounds are remarkably well tolerated.
LD50, mg Kg^-1, ep in mice of some mercapto
acyl-carnitine esters of general formula (I).
Weil's method (N = 5, K = 4)

[2] = Protection against X-ray exposure, survival of irradiated rats; assay type: in vivo, Albino Wister rats; details: 20-25 mg Kg^-1 1 hour before irradiation and 10 mg Kg^-1 per day in subsequent 20 days
Procedure: The effect of the compounds of formula (I) towards the damages provoked by X-ray exposure was studied.
The experiment animals, Albino Wister rats, treated with the compounds under examination (20-25 mg Kg^-1 1 hour before irradiation and 10 mg Kg^-1 per day in the subsequent 20 days) were irradiated and checked over a time period to detect the onset of toxic effects and the time of survival with respect to the control group.
In table II, the percentage of survival at the 10th, 15th and 20th day from irradiation are reported.

[3] = Cutaneous regeneration from burns in rabbits; assay type: in vivo; details: 25 mg Kg^-1 oral once a day for seven days
Procedure: The ability of the compounds of formula (I) to speed up the cutaneous regeneration from burns has been tested in rabbits.
A 4 cm^2 cutaneous area of the average-top zone of the test animal back was burned.
The compounds were orally administered in aqueous solution at the dose of 25 mg Kg^-1 once a day for seven days. The area of cutaneous regeneration, i.e., the area of the newly formed tissue was then measured (Table III).

[4] = Expectorant activity (bronchial secretion), method of Perry et al.; assay type: in vivo, male rabbits; details: rabbits
Procedure: The tests were carried out on male rabbits, weighing 2-3 Kg, anesthetized with ethyl urethane, by following the method disclosed by Perry et al. (J. Pharm. Exp. Ther. 73, 65, 1941).
Each cannula was connected to a feeding device which delivered a steady flow-rate of pre-heated air (36°-38° C.) at constant humidity (80%). At the lower end of each cannula, a graduated cylinder was fitted, wherein the bronchial secretion was collected. All of the animals breathed spontaneously and consequently they self-regulated the air intake suitable for normal respiration. After an hour following cannula insertion, the animals were administered orally (by stomach tube) the compounds of general formula (I) dissolved in distilled water at the doses indicated in Table IV. Each dose of drug was administered to 5 animals. The control animals (8) were given water only. The amount of secretion was determined after 1, 2 and 4 hours from administration.

[5] = Mucolytic activity in vitro, thromboelastograph, method of Morandini et al.; details: human sputum
Procedure: The tests were carried out in vitro by using the method disclosed by Morandini et al. (Lotta contro la tubercolosi 47, n. 4, 1977). A thromboelastograph was used to follow the variations induced by the compounds of general formula (I) and acetylcysteine on the rheological properties of human sputum.

[6] = 1 ml of a 10% solution at dilution 1/30
[7] = 1 ml of a 10% solution at dilution 1/60

Row | Compound | LD50 [1] | Percentage of surviving animals ([2]; 10th day from irradiation) | Percentage of surviving animals ([2]; 15th day from irradiation) | Percentage of surviving animals ([2]; 20th day from irradiation) | Percentage of regenerated tissue ([3]; 4th day from treatment) | Percentage of regenerated tissue ([3]; 8th day from treatment) | Percentage variations of bronchial secretion versus values ([4]; oral 20 mg, 2 hours) | Percentage variations of bronchial secretion versus values ([4]; oral 20 mg, 4 hours) | Percentage drop ± s.e. of the tracing versus maximum peak (mucolytic activity index) [5, 6] | Percentage drop ± s.e. of the tracing versus maximum peak (mucolytic activity index) [5, 7] | Percentage variations of bronchial secretion versus values ([4]; oral 20 mg, 1 hour) | Percentage variations of bronchial secretion versus values ([4]; oral 15 mg, 1 hour) | Percentage variations of bronchial secretion versus values ([4]; oral 15 mg, 2 hours) | Percentage variations of bronchial secretion versus values ([4]; oral 15 mg, 4 hours) | Percentage variations of bronchial secretion versus values ([4]; oral 25 mg, 1 hour) | Percentage variations of bronchial secretion versus values ([4]; oral 25 mg, 2 hours) | Percentage variations of bronchial secretion versus values ([4]; oral 25 mg, 4 hours)
1 | CCC(S)C(=O)OC(CC(=O)OCC(C)C)C[N+](C)(C)C (stereo not shown) [2-mercapto butyryl carnitine isobutyl ester] | 236 mg/kg | 95% | 65% | 50% | 35% | 70% | -0.4% | +0.2% | 95.9 ± 5% | 51.2 ± 3% |  |  |  |  |  |  | 
2 | CCOC(=O)CC(C[N+](C)(C)C)OC(=O)CCS (stereo not shown) [3-mercapto propionyl carnitine ethyl ester] | 228 mg/kg | 90% | 85% | 60% | 40% | 100% | +0.8% | +1.0% | 79.8 ± 4% | 39.5 ± 5% | +0.6% |  |  |  |  |  | 
3 | CC(C)OC(=O)CC(C[N+](C)(C)C)OC(=O)CS (stereo not shown) [mercapto acetyl carnitine hydrochloride isopropyl-ester] | 250 mg/kg | 80% | 55% | 30% | 30% | 70% |  |  | 82.5 ± 5% | 44.3 ± 3% |  | +0.5% | +0.7% | +2.1% |  |  | 
4 | COC(=O)CC(C[N+](C)(C)C)OC(=O)CCCCS (stereo not shown) [5-mercapto valeryl carnitine methyl ester] | 219 mg/kg | 85% | 60% | 40% | 45% | 100% | +0.5% | +1.0% | 90.2 ± 6% | 48.4 ± 4% | +0.3% |  |  |  |  |  | 
5 | CC(=O)N[C@@H](CS)C(=O)O [Acetylcysteine, acetylcysteine, reference compound] |  |  |  |  |  |  |  |  | 75.6 ± 7% | 23.8 ± 5% |  |  |  |  |  |  | 
6 | CC(C)COC(=O)CC(C[N+](C)(C)C)OC(=O)CCCS (stereo not shown) [4-mercapto butyryl carnitine isobutyl ester] | 231 mg/kg | 100% | 75% | 55% | 25% | 75% |  |  |  |  |  |  |  |  | +0.5% | +0.9% | +2.1%
7 | CC(C)COC(=O)CC(C[N+](C)(C)C)OC(=O)C(C)S (stereo not shown) [2-mercapto propionyl carnitine isobutyl ester] | 274 mg/kg | 85% | 70% | 45% | 25% | 65% |  |  | 80.4 ± 7% | 42.8 ± 4% |  |  | -0.1% | +0.5% |  |  | 
